Key:
[1] = biological target: Ghrelin receptor (Ovis aries, UniProt Q8MHZ5); assay: Displacement of [125I]ghrelin from ovine recombinant GHSR1a expressed in HEK293F cells after 6 hrs by scintillation proximity assay; assay type: cell-based
[2] = Cmax in Wistar rat at 10 mg/kg, po; assay type: ADME, organism-based; set-up: dose 10 mg/kg, route oral; conditions: in vivo
[3] = Bioavailability in Wistar rat plasma at 3 mg/kg, po; assay type: ADME, organism-based
[4] = Bioavailability in Wistar rat plasma at 1 mg/kg, iv; assay type: ADME, organism-based

Ghrelin receptor, sequence (Q8MHZ5 whole entry): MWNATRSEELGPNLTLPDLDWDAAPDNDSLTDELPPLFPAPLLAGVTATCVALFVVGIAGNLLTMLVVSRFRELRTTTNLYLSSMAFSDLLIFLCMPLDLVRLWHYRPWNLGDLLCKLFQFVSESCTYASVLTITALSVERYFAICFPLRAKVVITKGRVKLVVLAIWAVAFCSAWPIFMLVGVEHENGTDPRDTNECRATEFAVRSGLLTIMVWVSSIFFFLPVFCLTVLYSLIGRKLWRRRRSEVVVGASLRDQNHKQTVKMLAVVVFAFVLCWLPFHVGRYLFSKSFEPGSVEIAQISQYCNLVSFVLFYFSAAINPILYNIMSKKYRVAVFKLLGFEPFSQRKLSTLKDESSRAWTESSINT

Row | Ki [1] [nM] | Cmax [2] [nM] | bioavailability [3] [%] | bioavailability [4] [%] | Compound
1 | 20 | < 20 |  |  | CCCCN(C)c1ccc2nc(-c3ccccc3OC)n(CC3CCCN(CC)C3)c(=O)c2c1 (centres undefined)
2 |  |  | 29 | 29 | CCN1CCCC(Cn2c(-c3ccccc3C)nc3ccc(-c4ccc(Cl)cc4)cc3c2=O)C1.Cl (centres undefined)
